Data on 24 compounds can be found in patent publication US4034102A, “4-Substituted-1,3-dithiolan-2-ylidene malonates and pharmaceutical compositions containing the same” (Nihon Nohyaku Co. Ltd., priority 1975, dated 1977).

The term LD50 denotes the dose at which mortality reaches 50%.

Series [1] relates to CCl4-induced liver damage. The series can be described thus: Protection against CCl4-induced Hepatotoxicity. Type of series: in vivo, mice (four-week-old male, dd strain). As to conditions: 6 h before CCl4 (0.05 ml/kg oral), 24 h after CCl4, average of 5 to 6 mice; for Liver damage index: 250 mg/kg oral in olive oil, score 0 normal, 2 slightly recognized, 4 clearly observable damage, 6 heavy damage, CCl4 alone 5.2, control 0; for p-GPT (plasma glutamic-pyruvic transaminase activity): 250 mg/kg oral, values over 1,000 regarded as 1,000, CCl4 alone >1000, control 35. From the text: Carbon tetrachloride (CCl4) administration induces centrilobular necrosis of the liver associated with loss of diphosphopyridine nucleotide, hepatic glycogen, coenzyme A and increase in neutral fat. Release of several enzymes from the hepatocytes, and increase of enzyme activities in the plasma are recognized as the result of the damage of the liver. A suitable means for evaluating the degree of damage induced by CCl4 or the degree of protection afforded by drugs is to study the plasma glutamic-pyruvic transaminase (p-GPT) activity.
Methods: The test compounds were dissolved or suspended in olive oil and administered orally at the dose of 250 mg/kg to the mice (Four-week-old male mice-dd strain). After 6 hours, CCl4 was administered orally (0.05 ml/kg as olive oil solution). Animals were killed 24 hours after CCl4 administration, and the liver was grossly observed. The plasma was obtained by centrifugation. Activities of p-GPT were determined by the method of Reitman and Frankels and expressed in Karmen units. Score for liver damage index was as follows:
Each figure indicates average of 5 to 6 mice. Values of p-GPT over 1,000 Karmen unit regarded as 1,000 for calculation of average for convenience.

Series [2] in a line: in vivo. The conditions noted are these: mouse, oral, male mice, read-out: acute oral toxicity LD50. How it is done: For example, the LD50 value of the compound 12 is more than 3,000 mg/kg. Further, these compounds have no detrimental effects on test animals administered therewith, so far as the doses thereof are within an ordinary administration range.

With `CCOC(=O)C(C(=O)OCC)=C1SCC(OC(=O)CCl)S1` (stereo not shown) [Compound 1], in series [1], the Liver damage index is 1.0 and the “p-GPT (plasma glutamic-pyruvic transaminase activity)” value (“p-GPT” for short) was determined as 102 Karmen units.

For the compound `CC(C)OC(=O)C(C(=O)OC(C)C)=C1SCC(OC(=O)CN2CCOCC2)S1` (stereo not shown) [Compound 21], in series [1], the Liver damage index is 1.4 and the “p-GPT” value was found to be 380 Karmen units.

As for `CCOC(=O)C(C(=O)OCC)=C1SCC(OC(=O)CCC(=O)O)S1` (stereo not shown) [Compound 2, Succinic acid semi-ester of diethyl 4-hydroxy-1,3-dithiolan-2-ylidene malonate], in series [1], the Liver damage index was found to be 0.6 and the “p-GPT” value turned out to be 43 Karmen units.

In the case of `CC(C)OC(=O)C(C(=O)OC(C)C)=C1SCC(OC(=O)C2=C(C(=O)O)CCCC2)S1` (stereo not shown) [Compound 17], in series [1], the Liver damage index is 1.8 and the “p-GPT” value stood at 286 Karmen units.

On to `CC(C)OC(=O)C(C(=O)OC(C)C)=C1SCC(OC(=O)c2ccccc2)S1` (stereo not shown) [Compound 10], for which, in series [1], the Liver damage index is listed as 1.7 and the “p-GPT” value worked out at 520 Karmen units.

In the case of `CC(C)OC(=O)C(C(=O)OC(C)C)=C1SCC(OC(=O)CCC(=O)O)S1` (stereo not shown) [Compound 13], in series [1], the Liver damage index is reported as 0.6 and the “p-GPT” value is listed as 44 Karmen units.

For the compound `CCCN(CCC)CC(=O)OC1CSC(=C(C(=O)OCC)C(=O)OCC)S1` (stereo not shown) [Compound 6], in series [1], the Liver damage index is 1.6 and the “p-GPT” value is given as 250 Karmen units.

Take `CC(C)OC(=O)C(C(=O)OC(C)C)=C1SCC(OC(=O)CCl)S1` (stereo not shown) [Compound 9, diisopropyl 4-chloroacetoxy-1,3-dithiolan-2-ylidene malonate]: in series [1], the Liver damage index turned out to be 0.6 and the “p-GPT” value came to 65 Karmen units.

On to `CCCOC(=O)C(C(=O)OCCC)=C1SCC(OC(=O)CCC(=O)O)S1` (stereo not shown) [Compound 8, Succinic acid semi-ester of di-n-propyl 4-hydroxy-1,3-dithiolan-2-ylidene malonate], for which, in series [1], the Liver damage index turned out to be 0.6 and the “p-GPT” value amounted to 77 Karmen units.

Consider `CCCCOC(=O)C(C(=O)OCCCC)=C1SCC(OC(=O)CN2CCOCC2)S1` (stereo not shown) [Compound 22], for which, in series [1], the Liver damage index stood at 0.8 and the “p-GPT” value came to 134 Karmen units.

`CCOC(=O)C(C(=O)OCC)=C1SCC(OC(=O)CCC(=O)O)S1` (stereo not shown) [Compound 4]: in series [1], the Liver damage index is 0.2 and the “p-GPT” value is reported as 45 Karmen units.

For the compound `CCOC(=O)C(C(=O)OCC)=C1SCC(OC(=O)CCCC(=O)O)S1` (stereo not shown) [Compound 3], in series [1], the Liver damage index is given as 1.2 and the “p-GPT” value is 108 Karmen units.

With `CCN(CC)CC(=O)OC1CSC(=C(C(=O)OC(C)C)C(=O)OC(C)C)S1` (stereo not shown) [Compound 19, diisopropyl 4-diethylaminoacetoxy-1,3-dithiolan-2-ylidene malonate], in series [1], the Liver damage index was 1.2 and the “p-GPT” value is listed as 288 Karmen units.

Take `CC(C)OC(=O)C(C(=O)OC(C)C)=C1SCC(OC(=O)/C=C\C(=O)O)S1` (stereo not shown) [Compound 15]: in series [1], the Liver damage index was 0.4 and the “p-GPT” value was 62 Karmen units.

As for `CCOC(=O)C(C(=O)OCC)=C1SCC(OC(=O)C2=C(C(=O)O)CCCC2)S1` (stereo not shown) [Compound 7], in series [1], the Liver damage index was 2.2 and the “p-GPT” value amounted to 382 Karmen units.

Take `NC(=O)CCCCC1CCSS1` (stereo not shown) [Thioctic acid amide, reference compound]: in series [1], the Liver damage index is given as 4.8 and the “p-GPT” value was determined as 763 Karmen units.

Consider `CC(C)OC(=O)C(C(=O)OC(C)C)=C1SCC(OC(=O)CCC(=O)O)S1` (stereo not shown) [Compound 12], for which, in series [1], the Liver damage index is 0.2 and the “p-GPT” value is 33 Karmen units. The LD50 in series [2] was > 3000 mg/kg.

In the case of `CC(C)OC(=O)C(C(=O)OC(C)C)=C1SCC(OC(=O)C2CC=CCC2C(=O)O)S1` (stereo not shown) [Compound 18], in series [1], the Liver damage index is 2.6 and the “p-GPT” value turned out to be 565 Karmen units.

Regarding `CCOC(=O)C(C(=O)OCC)=C1SCC(OC(=O)CN2CCOCC2)S1` (stereo not shown) [Compound 23], in series [1], the Liver damage index is 0.8 and the “p-GPT” value is recorded as 122 Karmen units.

As to `CCOC(=O)C(C(=O)OCC)=C1SCC(OC(=O)CN(CC)CC)S1` (stereo not shown) [Compound 5, Diethyl 4-diethylaminoacetoxy-1,3-dithiolan-2-ylidene malonate], in series [1], the Liver damage index turned out to be 1.6 and the “p-GPT” value was determined as 232 Karmen units.

Take `CC(C)OC(=O)C(C(=O)OC(C)C)=C1SCC(OC(=O)CCCC(=O)O)S1` (stereo not shown) [Compound 14]: in series [1], the Liver damage index is recorded as 0.6 and the “p-GPT” value worked out at 102 Karmen units.

Consider `CC(C)OC(=O)C(C(=O)OC(C)C)=C1SCC(OC(=O)c2ccccc2C(=O)O)S1` (stereo not shown) [Compound 16, phthalic acid semi-ester of diisopropyl 4-hydroxy-1,3-dithiolan-2-ylidene malonate], for which, in series [1], the Liver damage index is listed as 3.2 and the “p-GPT” value came out at 482 Karmen units.

With `COc1ccc(-c2cc(=S)ss2)cc1` [Anethol trithion, reference compound], in series [1], the Liver damage index was 1.6 and the “p-GPT” value was found to be 58 Karmen units.

With `CC(C)OC(=O)C(C(=O)OC(C)C)=C1SCC(OC(=O)CCC(=O)O)S1` (stereo not shown) [Compound 11, succinic acid semi-ester of diisopropyl 4-hydroxy-1,3-dithiolan-2-ylidene malonate], in series [1], the Liver damage index is 0.2 and the “p-GPT” value amounted to 54 Karmen units.
